Test system: HEK293T nuclear lysates
Assay: SILAC‐based pull‐down proteomics H4K5me2/H4K5 (probes 7/5)
Assay type: binding, human
Details: for F6 log2 (H4K5me2/H4K5): run F6; for E6 log2 (H4K5me2/H4K5): run E6

probe 7: H4K5me2 peptide probe with photo‐arginine R(dz) and K(biotin) (SGRGKGGKGLGKGGK; photo-arginine R(dz) at 3; dimethyl-lysine at 5; K(biotin) at 15)
F6 log2 (H4K5me2/H4K5) (protein Q5SY16 NOL9): 0.298
E6 log2 (H4K5me2/H4K5) (protein Q5UIP0 RIF1): 0.1193
F6 log2 (H4K5me2/H4K5) (protein Q5UIP0 RIF1): -0.04241
E6 log2 (H4K5me2/H4K5) (protein Q5VZL5 ZMYM4): 0.09551
F6 log2 (H4K5me2/H4K5) (protein Q5VZL5 ZMYM4): -0.04431
E6 log2 (H4K5me2/H4K5) (protein Q8NFW8 CMAS): 0.141
F6 log2 (H4K5me2/H4K5) (protein Q8NFW8 CMAS): 0.05465
E6 log2 (H4K5me2/H4K5) (protein Q8WYA6 CTNNBL1): 0.1516
F6 log2 (H4K5me2/H4K5) (protein Q8WYA6 CTNNBL1): 0.456
E6 log2 (H4K5me2/H4K5) (protein Q9BRX2 PELO): 0.1716
F6 log2 (H4K5me2/H4K5) (protein Q9BRX2 PELO): 0.4162
E6 log2 (H4K5me2/H4K5) (protein Q9BUF5 TUBB6): 0.1331
F6 log2 (H4K5me2/H4K5) (protein Q9BUF5 TUBB6): -0.5148
E6 log2 (H4K5me2/H4K5) (protein Q9BVA1 TUBB2B): 0.166
F6 log2 (H4K5me2/H4K5) (protein Q9BVA1 TUBB2B): -0.2469
E6 log2 (H4K5me2/H4K5) (protein Q9BVJ6 UTP14A): 0.05903
F6 log2 (H4K5me2/H4K5) (protein Q9BVJ6 UTP14A): -0.461
E6 log2 (H4K5me2/H4K5) (protein Q9BW71 HIRIP3): 0.0877
F6 log2 (H4K5me2/H4K5) (protein Q9BW71 HIRIP3): -0.01781
E6 log2 (H4K5me2/H4K5) (protein Q9BXP5 SRRT): 0.141
F6 log2 (H4K5me2/H4K5) (protein Q9BXP5 SRRT): 0.1118
E6 log2 (H4K5me2/H4K5) (protein Q9H4L7 SMARCAD1): 0.1459
F6 log2 (H4K5me2/H4K5) (protein Q9H4L7 SMARCAD1): 0.07323
E6 log2 (H4K5me2/H4K5) (protein Q9H5H4 ZNF768): 0.1121
F6 log2 (H4K5me2/H4K5) (protein Q9H5H4 ZNF768): 0.2152
E6 log2 (H4K5me2/H4K5) (protein Q9NPJ6 MED4): 0.1455
F6 log2 (H4K5me2/H4K5) (protein Q9NPJ6 MED4): 0.1113
E6 log2 (H4K5me2/H4K5) (protein Q9NRL2 BAZ1A): 0.163
F6 log2 (H4K5me2/H4K5) (protein Q9NRL2 BAZ1A): 0.1532
E6 log2 (H4K5me2/H4K5) (protein Q9NX58 LYAR): 0.1556
F6 log2 (H4K5me2/H4K5) (protein Q9NX58 LYAR): 0.3557
E6 log2 (H4K5me2/H4K5) (protein Q9P013 CWC15): 0.1308
F6 log2 (H4K5me2/H4K5) (protein Q9P013 CWC15): 0.1373
E6 log2 (H4K5me2/H4K5) (protein Q9P258 RCC2): 0.1054
F6 log2 (H4K5me2/H4K5) (protein Q9P258 RCC2): 0.04172
E6 log2 (H4K5me2/H4K5) (protein Q9UFW8 CGGBP1): 0.1502
F6 log2 (H4K5me2/H4K5) (protein Q9UFW8 CGGBP1): 0.1918
E6 log2 (H4K5me2/H4K5) (protein Q9ULV4 CORO1C): 0.1506
F6 log2 (H4K5me2/H4K5) (protein Q9ULV4 CORO1C): 0.2392
E6 log2 (H4K5me2/H4K5) (protein Q9Y5Q8 GTF3C5): 0.07771
F6 log2 (H4K5me2/H4K5) (protein Q9Y5Q8 GTF3C5): -0.06295
E6 log2 (H4K5me2/H4K5) (protein Q9Y5Q9 GTF3C3): 0.06434
F6 log2 (H4K5me2/H4K5) (protein Q9Y5Q9 GTF3C3): 0.04559
E6 log2 (H4K5me2/H4K5) (protein Q9Y6G9 DYNC1LI1): 0.06739
F6 log2 (H4K5me2/H4K5) (protein Q9Y6G9 DYNC1LI1): 0.07842
E6 log2 (H4K5me2/H4K5) (protein Q9Y383 LUC7L2): 0.1112
F6 log2 (H4K5me2/H4K5) (protein Q9Y383 LUC7L2): 0.1004
E6 log2 (H4K5me2/H4K5) (protein Q69YN4 KIAA1429): 0.07633
F6 log2 (H4K5me2/H4K5) (protein Q69YN4 KIAA1429): 1.095
E6 log2 (H4K5me2/H4K5) (protein Q86UV5 USP48): 0.08539
F6 log2 (H4K5me2/H4K5) (protein Q86UV5 USP48): 0.1516
E6 log2 (H4K5me2/H4K5) (protein Q86VP6 CAND1): 0.1189
F6 log2 (H4K5me2/H4K5) (protein Q86VP6 CAND1): 0.1916
E6 log2 (H4K5me2/H4K5) (protein Q96I24 FUBP3): 0.09267
F6 log2 (H4K5me2/H4K5) (protein Q96I24 FUBP3): 0.003553
E6 log2 (H4K5me2/H4K5) (protein Q96RL1 UIMC1): 0.1095
F6 log2 (H4K5me2/H4K5) (protein Q96RL1 UIMC1): 0.3246
E6 log2 (H4K5me2/H4K5) (protein Q96SI9 STRBP): 0.1111
F6 log2 (H4K5me2/H4K5) (protein Q96SI9 STRBP): -0.1086
E6 log2 (H4K5me2/H4K5) (protein Q00839 HNRNPU): 0.1593
F6 log2 (H4K5me2/H4K5) (protein Q00839 HNRNPU): 0.1015
E6 log2 (H4K5me2/H4K5) (protein Q06265 EXOSC9): 0.08559
F6 log2 (H4K5me2/H4K5) (protein Q06265 EXOSC9): 0.2199
E6 log2 (H4K5me2/H4K5) (protein Q08211 DHX9): 0.1119
F6 log2 (H4K5me2/H4K5) (protein Q08211 DHX9): 0.3522
E6 log2 (H4K5me2/H4K5) (protein Q12888 TP53BP1): 0.1736
F6 log2 (H4K5me2/H4K5) (protein Q12888 TP53BP1): 0.06404
E6 log2 (H4K5me2/H4K5) (protein Q13409 DYNC1I2): 0.06369
F6 log2 (H4K5me2/H4K5) (protein Q13409 DYNC1I2): -0.3262
E6 log2 (H4K5me2/H4K5) (protein Q13838 DDX39B): 0.1273
F6 log2 (H4K5me2/H4K5) (protein Q13838 DDX39B): 0.2575
E6 log2 (H4K5me2/H4K5) (protein Q14247 CTTN): 0.1014
F6 log2 (H4K5me2/H4K5) (protein Q14247 CTTN): -0.09702
E6 log2 (H4K5me2/H4K5) (protein Q14498 RBM39): 0.177
F6 log2 (H4K5me2/H4K5) (protein Q14498 RBM39): 0.352
E6 log2 (H4K5me2/H4K5) (protein Q14683 SMC1A): 0.1403
F6 log2 (H4K5me2/H4K5) (protein Q14683 SMC1A): 0.1731
E6 log2 (H4K5me2/H4K5) (protein Q15007 WTAP): 0.1397
F6 log2 (H4K5me2/H4K5) (protein Q15007 WTAP): 0.4766
E6 log2 (H4K5me2/H4K5) (protein Q15029 EFTUD2): 0.07001
F6 log2 (H4K5me2/H4K5) (protein Q15029 EFTUD2): 0.00906
E6 log2 (H4K5me2/H4K5) (protein Q15181 PPA1): 0.1337
F6 log2 (H4K5me2/H4K5) (protein Q15181 PPA1): 0.2844
E6 log2 (H4K5me2/H4K5) (protein Q15366 PCBP2): 0.119
F6 log2 (H4K5me2/H4K5) (protein Q15366 PCBP2): 0.02194
E6 log2 (H4K5me2/H4K5) (protein Q15459 SF3A1): 0.09759
F6 log2 (H4K5me2/H4K5) (protein Q15459 SF3A1): -0.03717
E6 log2 (H4K5me2/H4K5) (protein Q15637 SF1): 0.06831
F6 log2 (H4K5me2/H4K5) (protein Q15637 SF1): -0.04609
E6 log2 (H4K5me2/H4K5) (protein Q15654 TRIP6): 0.1136
F6 log2 (H4K5me2/H4K5) (protein Q15654 TRIP6): 0.7606
E6 log2 (H4K5me2/H4K5) (protein Q16543 CDC37): 0.09946
F6 log2 (H4K5me2/H4K5) (protein Q16543 CDC37): -0.01218
E6 log2 (H4K5me2/H4K5) (protein Q92769 HDAC2): 0.1172
F6 log2 (H4K5me2/H4K5) (protein Q92769 HDAC2): 0.07863
E6 log2 (H4K5me2/H4K5) (protein Q92785 DPF2): 0.1557
F6 log2 (H4K5me2/H4K5) (protein Q92785 DPF2): 0.235
E6 log2 (H4K5me2/H4K5) (protein Q92945 KHSRP): 0.0526
F6 log2 (H4K5me2/H4K5) (protein Q92945 KHSRP): 0.2777
E6 log2 (H4K5me2/H4K5) (protein Q99459 CDC5L): 0.1274
F6 log2 (H4K5me2/H4K5) (protein Q99459 CDC5L): -0.0666
